Laboratory results published in ChEMBL document CHEMBL1201862, “PubChem BioAssay data set” (2004).
Active and inactive are the calls of the source.

Key:
HEK293 = test: cells; assay type: functional, cell-based; conditions: Homo sapiens
[1] = target: Nuclear receptor subfamily 0 group B member 1 (Homo sapiens, UniProt P51843); test: Luminescence-based cell-based high throughput dose response assay for inhibitors of the orphan nuclear receptor subfamily 0, group B, member 1 (DAX1; NR0B1). [Related pubchem assays (depositor defined):AID504766, AID504790]; assay type: functional
Sequence of Nuclear receptor subfamily 0 group B member 1 (P51843 whole entry): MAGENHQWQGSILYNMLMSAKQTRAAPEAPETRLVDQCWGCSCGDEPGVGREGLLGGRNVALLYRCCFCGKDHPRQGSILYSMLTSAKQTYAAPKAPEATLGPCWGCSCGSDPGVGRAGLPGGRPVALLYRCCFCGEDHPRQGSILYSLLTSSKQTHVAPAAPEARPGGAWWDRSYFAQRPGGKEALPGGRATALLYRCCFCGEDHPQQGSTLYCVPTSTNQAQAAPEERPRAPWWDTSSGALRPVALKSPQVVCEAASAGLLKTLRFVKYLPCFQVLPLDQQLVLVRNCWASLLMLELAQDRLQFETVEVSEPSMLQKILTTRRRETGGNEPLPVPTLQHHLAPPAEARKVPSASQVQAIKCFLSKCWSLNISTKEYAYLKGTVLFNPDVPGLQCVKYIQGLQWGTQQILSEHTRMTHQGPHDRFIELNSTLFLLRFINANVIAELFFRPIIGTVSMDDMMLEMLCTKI

[2] = target: Delta-type opioid receptor (Homo sapiens, UniProt P41143); test: Counterscreen for agonists of heterodimerization of the mu 1 (OPRM1) and delta 1 (OPRD1) opioid receptors: Luminescence-based cell-based high throughput dose response assay to identify agonists of OPRD1 homodimerization. [Related pubchem assays (depositor defined):AID504326, AID504355, AID504692, AID504904, AID504905]; assay type: functional
Sequence of Delta-type opioid receptor (P41143 whole entry): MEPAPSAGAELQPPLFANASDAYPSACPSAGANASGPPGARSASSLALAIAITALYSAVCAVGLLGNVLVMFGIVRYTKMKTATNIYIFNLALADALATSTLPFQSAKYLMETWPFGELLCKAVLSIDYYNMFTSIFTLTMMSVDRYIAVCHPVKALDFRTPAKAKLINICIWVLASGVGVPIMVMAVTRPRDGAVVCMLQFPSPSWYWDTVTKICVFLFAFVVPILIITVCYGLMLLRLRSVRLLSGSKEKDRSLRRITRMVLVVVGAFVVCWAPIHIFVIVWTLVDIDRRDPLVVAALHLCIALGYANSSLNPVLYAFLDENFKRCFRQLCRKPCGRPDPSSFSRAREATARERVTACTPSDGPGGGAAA

Mu-type opioid receptor = Mu-type opioid receptor (Homo sapiens, UniProt P35372); test: Counterscreen for agonists of heterodimerization of the mu 1 (OPRM1) and delta 1 (OPRD1) opioid receptors: Luminescence-based cell-based high throughput dose response assay to identify agonists of OPRM1 homodimerization.; assay type: functional;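 further: U2OS cells expressing OPRM1 and beta-arrestin as split beta-galactosidase partners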
Sequence of Mu-type opioid receptor (P35372 whole entry): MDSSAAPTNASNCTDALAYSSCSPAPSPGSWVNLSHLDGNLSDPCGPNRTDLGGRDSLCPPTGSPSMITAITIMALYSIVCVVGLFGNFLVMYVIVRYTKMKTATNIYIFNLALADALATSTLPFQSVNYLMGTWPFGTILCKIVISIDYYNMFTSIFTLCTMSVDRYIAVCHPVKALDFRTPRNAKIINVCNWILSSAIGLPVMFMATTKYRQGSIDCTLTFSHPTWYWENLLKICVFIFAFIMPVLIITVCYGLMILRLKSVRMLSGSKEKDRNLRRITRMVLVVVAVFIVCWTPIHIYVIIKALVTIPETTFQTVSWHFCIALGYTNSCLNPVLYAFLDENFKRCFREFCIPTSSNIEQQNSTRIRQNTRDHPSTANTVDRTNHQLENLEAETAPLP

[3] = target: 5-hydroxytryptamine receptor 5A (Homo sapiens, UniProt P47898); test: Counterscreen for agonists of OPRM1-OPRD1 heterodimerization: luminescence-based cell-based high throughput dose response assay to identify agonists of 5-hydroxytryptamine (serotonin) 5A receptor (HTR5A). [Related pubchem assays (depositor defined):AID504326, AID504355, AID504692, AID504904, AID504905]; assay type: functional
Sequence of 5-hydroxytryptamine receptor 5A (P47898 whole entry): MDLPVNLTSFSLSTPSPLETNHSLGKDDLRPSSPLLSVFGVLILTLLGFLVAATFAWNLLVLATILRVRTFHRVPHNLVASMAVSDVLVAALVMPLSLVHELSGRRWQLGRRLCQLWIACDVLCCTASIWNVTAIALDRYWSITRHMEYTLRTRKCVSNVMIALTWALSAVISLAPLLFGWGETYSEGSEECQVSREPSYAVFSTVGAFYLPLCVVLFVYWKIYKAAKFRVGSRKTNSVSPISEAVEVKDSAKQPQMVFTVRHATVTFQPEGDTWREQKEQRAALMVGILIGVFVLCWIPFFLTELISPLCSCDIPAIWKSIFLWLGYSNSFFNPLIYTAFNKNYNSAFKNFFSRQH

| Compound | IC50 (HEK293) | IC50 [1] | EC50 [2] | EC50 (Mu-type opioid receptor) | EC50 [3] |
| --- | --- | --- | --- | --- | --- |
| COc1ccccc1NC(=O)Nc1ccc2c(c1)OCCO2 | > 67.5 µM (inactive) | > 67.5 µM (inactive) | – | – | – |
| Cc1c(CCOC(=O)c2ccccc2)sc[n+]1CC(=O)c1ccc(Br)cc1 | – | – | > 92.5 µM (inactive) | > 92.5 µM (inactive) | > 92.5 µM (inactive) |
